# Measured values published in patent US11891634B2, “PDE5A destabilizing domains” (The Board of Trustees of the Leland Stanford Junior …, priority 2017, dated 2024).
# Experiments:
# Type in all cases: cell-based, human
# [1] = tested on: HCT116 cells transduced with the constructs; assay: Response to Sildenafil, GFP expression by flow cytometry in HCT116; details: for MFI / Stabilization ratio with Sildenafil: 48 hours, HCT116
# In short: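 HCT116 cells stably expressing AcGFP-fused destabilizing domains from a lentiviral mCherry-marked vector (sorted on mCherry) were exposed to sildenafil at 0.01–100 μM for 48 hours. GFP mean fluorescence intensity was measured by flow cytometry.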
# [2] = tested on: HCT 116 cells transduced with the PDE5A DD derived GFP constructs; assay: Response to Tadalafil, GFP expression by FACS in HCT116; details: 48 hours, HCT116
# In short: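 HCT116 cells stably transduced (mCherry-sorted) with lentiviral PDE5A DD–AcGFP constructs, exposed to DMSO or Tadalafil 0.01–100 μM for 48 hrs. GFP mean fluorescence by FACS; stabilization ratio = ligand vs no-ligand signal, basal expression = no-ligand signal vs parental autofluorescence.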
# [3] = tested on: HCT 116 cells transduced with the PDE5A DD derived GFP constructs; assay: Response to Vardenafil, GFP expression by FACS in HCT116; details: 48 hours, HCT116
# In short: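 HCT116 cells stably carrying lentiviral AcGFP fusions of PDE5A (535-860) mutants, sorted on mCherry, got DMSO or Vardenafil (10 μM, or 0.002–30 μM) for 48 h, and GFP MFI was read by flow cytometry. Basal expression is untreated GFP over parental autofluorescence; the stabilization ratio is treated over untreated MFI.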
substance,measurement,setting,value
"PDE5AN (#3): N-terminal DD 535-860 of PDE5A (Q589R, K633E, T712S, K852E, K795E), SEQ ID NO. 66, fused to AcGFP",MFI,[1]; DMSO (no Sildenafil),9835
same,Stabilization ratio with Sildenafil,[1]; Sildenafil 0.01 μM vs DMSO,1.0
same,MFI,[1]; Sildenafil 0.01 μM,9888
same,Stabilization ratio with Sildenafil,[1]; Sildenafil 0.02 μM vs DMSO,1.0
same,MFI,[1]; Sildenafil 0.02 μM,10157
same,Stabilization ratio with Sildenafil,[1]; Sildenafil 0.05 μM vs DMSO,1.0
same,MFI,[1]; Sildenafil 0.05 μM,9952
same,Stabilization ratio with Sildenafil,[1]; Sildenafil 0.14 μM vs DMSO,1.1
same,MFI,[1]; Sildenafil 0.14 μM,10475
same,Stabilization ratio with Sildenafil,[1]; Sildenafil 0.41 μM vs DMSO,1.3
same,MFI,[1]; Sildenafil 0.41 μM,12302
same,Stabilization ratio with Sildenafil,[1]; Sildenafil 1.23 μM vs DMSO,1.7
same,MFI,[1]; Sildenafil 1.23 μM,16826
same,Stabilization ratio with Sildenafil,[1]; Sildenafil 3.70 μM vs DMSO,2.8
same,MFI,[1]; Sildenafil 3.70 μM,27542
same,Stabilization ratio with Sildenafil,[1]; Sildenafil 11.11 μM vs DMSO,5.4
same,MFI,[1]; Sildenafil 11.11 μM,52641
same,Stabilization ratio with Sildenafil,[1]; Sildenafil 33.33 μM vs DMSO,8.7
same,MFI,[1]; Sildenafil 33.33 μM,85509
same,MFI,[1]; Sildenafil 100.00 μM,103938
same,Basal expression,"[1]; Table 26, MFI with DMSO / parental HCT116, Sildenafil experiment",7.6
same,MFI,[2]; DMSO (no Tadalafil),6944
same,expression of GFP (MFI) with increasing doses of Tadalafil,[2]; Tadalafil 0.01 μM to 100 μM,Tadalafil dose dependent increase in the MFI
same,Stabilization ratio with Tadalafil,[2]; Tadalafil 0.01 μM vs DMSO,1.0
same,MFI,[2]; Tadalafil 0.01 μM,6781
same,Stabilization ratio with Tadalafil,[2]; Tadalafil 0.02 μM vs DMSO,1.0
same,MFI,[2]; Tadalafil 0.02 μM,6685
same,Stabilization ratio with Tadalafil,[2]; Tadalafil 0.05 μM vs DMSO,1.0
same,MFI,[2]; Tadalafil 0.05 μM,7013
same,Stabilization ratio with Tadalafil,[2]; Tadalafil 0.14 μM vs DMSO,1.0
same,MFI,[2]; Tadalafil 0.14 μM,6988
same,Stabilization ratio with Tadalafil,[2]; Tadalafil 0.41 μM vs DMSO,1.1
same,MFI,[2]; Tadalafil 0.41 μM,7648
same,Stabilization ratio with Tadalafil,[2]; Tadalafil 1.23 μM vs DMSO,1.3
same,MFI,[2]; Tadalafil 1.23 μM,8973
same,Stabilization ratio with Tadalafil,[2]; Tadalafil 3.7 μM vs DMSO,2.0
same,MFI,[2]; Tadalafil 3.7 μM,14097
same,Stabilization ratio with Tadalafil,[2]; Tadalafil 11.11 μM vs DMSO,3.8
same,MFI,[2]; Tadalafil 11.11 μM,26560
same,Stabilization ratio with Tadalafil,[2]; Tadalafil 33.33 μM vs DMSO,7.2
same,MFI,[2]; Tadalafil 33.33 μM,49889
same,Stabilization ratio with Tadalafil,[2]; Tadalafil 100 μM vs DMSO,9.9
same,MFI,[2]; Tadalafil 100 μM,68532
same,MFI,[3]; DMSO (no Vardenafil),8934
same,Stabilization ratio,"[3]; Table 10, 10 μM Vardenafil vs DMSO",stabilization ratios similar to those observed for sildenafil
same,Stabilization ratio with Vardenafil,[3]; Vardenafil 0.002 μM vs DMSO,1.0
same,MFI,[3]; Vardenafil 0.002 μM,8767
same,MFI,[3]; Vardenafil 0.005 μM,9620
same,Stabilization ratio with Vardenafil,[3]; Vardenafil 0.014 μM vs DMSO,1.2
same,MFI,[3]; Vardenafil 0.014 μM,10487
same,Stabilization ratio with Vardenafil,[3]; Vardenafil 0.041 μM vs DMSO,1.6
same,MFI,[3]; Vardenafil 0.041 μM,14086
same,Stabilization ratio with Vardenafil,[3]; Vardenafil 0.123 μM vs DMSO,2.3
same,MFI,[3]; Vardenafil 0.123 μM,20568
same,Stabilization ratio with Vardenafil,[3]; Vardenafil 0.370 μM vs DMSO,4.1
same,MFI,[3]; Vardenafil 0.370 μM,36786
same,Stabilization ratio with Vardenafil,[3]; Vardenafil 1.111 μM vs DMSO,7.4
same,MFI,[3]; Vardenafil 1.111 μM,66543
same,Stabilization ratio with Vardenafil,[3]; Vardenafil 3.333 μM vs DMSO,11.1
same,MFI,[3]; Vardenafil 3.333 μM,98986
same,Stabilization ratio with Vardenafil,[3]; Vardenafil 10 μM vs DMSO,13.4
same,MFI,[3]; Vardenafil 10 μM,119591
same,MFI,[3]; Vardenafil 30 μM,131667
